Laboratory results as given in ChEMBL document CHEMBL1201862, “PubChem BioAssay data set” (2004).
The source made the active and inactive calls.

Legend:
[1] = molecular target: T1, Corticotropin-releasing factor receptor 2/Corticotropin-releasing factor-binding protein (Homo sapiens, UniProt P24387+Q13324); experiment: Dose Response confirmation of uHTS hits for small molecule antagonists of the CRF-binding protein and CRF-R2 receptor complex.; format: functional; details: read-out: IC50_Mean
T1 sequence (Q13324 whole entry): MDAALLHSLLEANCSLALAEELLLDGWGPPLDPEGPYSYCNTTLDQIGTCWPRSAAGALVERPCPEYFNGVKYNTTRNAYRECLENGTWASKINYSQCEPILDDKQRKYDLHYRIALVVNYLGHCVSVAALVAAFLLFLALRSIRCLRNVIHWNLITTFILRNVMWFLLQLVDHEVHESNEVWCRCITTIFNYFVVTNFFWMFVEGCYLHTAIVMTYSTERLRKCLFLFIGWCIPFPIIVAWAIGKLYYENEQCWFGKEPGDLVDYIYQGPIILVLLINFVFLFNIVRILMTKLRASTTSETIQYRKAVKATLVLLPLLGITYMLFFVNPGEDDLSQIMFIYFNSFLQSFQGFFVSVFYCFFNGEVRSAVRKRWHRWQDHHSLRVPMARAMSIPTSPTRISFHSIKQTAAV
T1 sequence (P24387 whole entry): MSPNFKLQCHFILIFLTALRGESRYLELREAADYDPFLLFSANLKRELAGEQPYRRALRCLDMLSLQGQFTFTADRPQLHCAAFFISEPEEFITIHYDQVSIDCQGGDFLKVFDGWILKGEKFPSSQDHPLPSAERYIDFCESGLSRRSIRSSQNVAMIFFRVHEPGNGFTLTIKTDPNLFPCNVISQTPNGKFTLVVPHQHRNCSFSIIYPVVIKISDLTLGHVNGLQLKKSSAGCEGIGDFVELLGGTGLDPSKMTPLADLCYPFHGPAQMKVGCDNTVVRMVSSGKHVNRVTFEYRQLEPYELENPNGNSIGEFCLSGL

[2] = molecular target: T2, Short transient receptor potential channel 4 (Mus musculus, UniProt Q9QUQ5); experiment: mouse TRPC4 channel inhibitors, dose response, cell-based, HEK293 TRPC4/mu-opioid, Fluo-4 calcium (AID 434942); format: functional;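 note: potency of inhibitors blocking the TRPC4 calcium response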
T2 sequence (Q9QUQ5 whole entry): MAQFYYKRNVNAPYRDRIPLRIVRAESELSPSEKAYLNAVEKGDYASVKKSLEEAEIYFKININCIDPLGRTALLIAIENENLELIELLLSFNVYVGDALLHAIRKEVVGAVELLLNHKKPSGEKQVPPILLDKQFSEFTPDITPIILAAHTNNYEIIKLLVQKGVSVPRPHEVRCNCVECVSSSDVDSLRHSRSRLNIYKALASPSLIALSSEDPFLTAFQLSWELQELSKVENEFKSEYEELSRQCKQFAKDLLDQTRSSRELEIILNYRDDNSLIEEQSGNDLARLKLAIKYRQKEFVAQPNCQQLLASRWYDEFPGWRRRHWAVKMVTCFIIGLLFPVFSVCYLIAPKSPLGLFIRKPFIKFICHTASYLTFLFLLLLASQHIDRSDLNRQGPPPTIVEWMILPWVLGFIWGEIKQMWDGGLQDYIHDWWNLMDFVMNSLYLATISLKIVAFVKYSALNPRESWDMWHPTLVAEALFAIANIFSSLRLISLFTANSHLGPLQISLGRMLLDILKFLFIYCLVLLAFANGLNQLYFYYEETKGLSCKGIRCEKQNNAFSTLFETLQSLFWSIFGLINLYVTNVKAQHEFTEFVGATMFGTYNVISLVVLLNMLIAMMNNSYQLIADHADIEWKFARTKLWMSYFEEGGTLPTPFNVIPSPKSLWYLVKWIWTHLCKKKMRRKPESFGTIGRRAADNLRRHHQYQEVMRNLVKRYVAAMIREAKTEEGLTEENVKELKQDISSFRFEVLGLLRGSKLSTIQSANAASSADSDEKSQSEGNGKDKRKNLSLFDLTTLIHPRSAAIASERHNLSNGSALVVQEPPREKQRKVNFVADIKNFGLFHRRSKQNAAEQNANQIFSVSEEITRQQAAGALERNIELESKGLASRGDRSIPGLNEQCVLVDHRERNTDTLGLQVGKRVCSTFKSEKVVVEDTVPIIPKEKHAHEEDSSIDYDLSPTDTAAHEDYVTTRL

[3] = CRF-BP/CRF-R2 complex antagonists, dose response, cell-based, uHTS hits, 384-well (AID 651639); format: functional, Homo sapiens; details: read-out: IC50_Mean
[4] = molecular target: T1, Corticotropin-releasing factor receptor 2/Corticotropin-releasing factor-binding protein; experiment: activators of CRF receptor 2 with binding protein – uHTS hits, confirmation (AID 602473); format: functional; details: read-out: EC50_Mean
[5] = molecular target: Photoreceptor-specific nuclear receptor (Homo sapiens, UniProt Q9Y5X4); format: functional, cell-based;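 note: CHO-S cells with Gal4-NCOR and VP16-NR2E3 two-hybrid luciferase reporter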
Photoreceptor-specific nuclear receptor, sequence (Q9Y5X4 whole entry, the tested form may be a part): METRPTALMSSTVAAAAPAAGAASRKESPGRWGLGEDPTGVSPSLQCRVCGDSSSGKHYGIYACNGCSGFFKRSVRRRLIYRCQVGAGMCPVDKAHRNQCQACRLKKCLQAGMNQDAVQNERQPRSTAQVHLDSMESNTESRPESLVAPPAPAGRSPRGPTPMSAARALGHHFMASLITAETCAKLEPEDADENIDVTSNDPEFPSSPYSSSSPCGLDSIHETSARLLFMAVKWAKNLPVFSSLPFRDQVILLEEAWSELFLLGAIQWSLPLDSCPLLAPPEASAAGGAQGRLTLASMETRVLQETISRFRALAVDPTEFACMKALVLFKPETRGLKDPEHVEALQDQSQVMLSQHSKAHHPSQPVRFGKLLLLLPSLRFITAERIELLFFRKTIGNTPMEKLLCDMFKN

[6] = C. albicans growth with fluconazole, confirmation, fluorescence, retest (AID 2467); format: functional, cell-based
INS1 = experiment: beta cell apoptosis inhibitors, cytokine rescue, dose response, luminescence, retest (AID 449756); format: functional, cell-based; details: Rattus norvegicus;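 note: cell death triggered by IL-1 beta plus TNF-alpha plus IFN-gamma mixture; protective hits raise ATP signal compared with cytokine alone wells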
[7] = molecular target: T3, DNA repair protein RAD52 homolog (Homo sapiens, UniProt P43351); format: functional, biochemical
T3 sequence (P43351 whole entry): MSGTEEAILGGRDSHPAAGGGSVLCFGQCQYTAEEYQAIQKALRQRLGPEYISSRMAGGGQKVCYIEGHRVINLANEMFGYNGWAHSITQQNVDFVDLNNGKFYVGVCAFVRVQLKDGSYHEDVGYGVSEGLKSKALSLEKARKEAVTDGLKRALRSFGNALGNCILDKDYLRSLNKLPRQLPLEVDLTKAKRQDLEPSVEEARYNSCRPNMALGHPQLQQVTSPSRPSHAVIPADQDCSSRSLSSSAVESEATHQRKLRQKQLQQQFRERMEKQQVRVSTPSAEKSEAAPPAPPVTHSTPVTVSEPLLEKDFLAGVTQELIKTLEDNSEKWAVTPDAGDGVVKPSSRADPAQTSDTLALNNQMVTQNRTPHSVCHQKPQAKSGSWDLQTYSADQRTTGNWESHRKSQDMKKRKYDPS

[8] = NIH-3T3 fibroblast cytotoxicity, dose response, cytotoxicity control, cell-based, fluorescence, Alamar Blue, secondary assay (AID 2327); format: functional;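 note: NIH-3T3 mouse fibroblasts cultured with fluconazole at 8 µg/mL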
[9] = molecular target: T4, Microphthalmia-associated transcription factor (Homo sapiens, UniProt O75030); experiment: TRPM1 promoter luciferase signal decrease, dose response, MITF inhibitor project, cell-based, SK-MEL-5, cherry-picked, set 3 (AID 493073); format: functional
T4 sequence (O75030 whole entry): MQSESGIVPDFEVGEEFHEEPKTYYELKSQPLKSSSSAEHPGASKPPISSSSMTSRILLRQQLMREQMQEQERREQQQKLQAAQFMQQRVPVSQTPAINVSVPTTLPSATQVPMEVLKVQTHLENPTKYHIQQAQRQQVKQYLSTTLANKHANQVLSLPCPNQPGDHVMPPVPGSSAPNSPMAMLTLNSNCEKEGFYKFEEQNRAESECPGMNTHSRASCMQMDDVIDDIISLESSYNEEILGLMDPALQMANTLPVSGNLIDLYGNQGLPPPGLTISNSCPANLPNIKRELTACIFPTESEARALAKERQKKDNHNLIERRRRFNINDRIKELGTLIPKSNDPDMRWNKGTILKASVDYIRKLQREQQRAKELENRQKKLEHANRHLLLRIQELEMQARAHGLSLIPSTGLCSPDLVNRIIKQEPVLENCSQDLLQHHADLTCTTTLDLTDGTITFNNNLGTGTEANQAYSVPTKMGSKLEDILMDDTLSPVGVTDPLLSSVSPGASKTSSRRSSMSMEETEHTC

Protein Wnt-3a = Protein Wnt-3a (Mus musculus, UniProt P27467); experiment: Wnt3a-driven reporter signaling inhibition, dose response, selectivity assay for Gli-SUFU antagonist project, Wnt-LIGHT cells, luminescence (AID 651570); format: functional; details: read-out: IC50_Mean;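 note: Wnt-LIGHT reporter cells stimulated with conditioned medium from Wnt3a-producing cells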
Protein Wnt-3a, sequence (P27467 whole entry): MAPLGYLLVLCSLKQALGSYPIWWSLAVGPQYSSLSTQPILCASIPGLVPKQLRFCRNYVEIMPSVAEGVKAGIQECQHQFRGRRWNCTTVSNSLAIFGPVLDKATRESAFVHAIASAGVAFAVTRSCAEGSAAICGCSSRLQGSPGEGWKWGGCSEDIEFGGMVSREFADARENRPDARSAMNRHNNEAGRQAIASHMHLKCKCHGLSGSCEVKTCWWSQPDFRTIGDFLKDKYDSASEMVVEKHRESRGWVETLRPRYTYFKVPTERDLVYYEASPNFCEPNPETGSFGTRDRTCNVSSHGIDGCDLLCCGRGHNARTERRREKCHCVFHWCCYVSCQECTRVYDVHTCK

[10] = StAR promoter reporter inhibition counter-screen, dose response, counter-screen for LRH-1 inverse agonist project, cell-based, luminescence, luciferase reporter (AID 651969); format: functional
SUMO-activating enzyme [11] = molecular target: T5, SUMO-activating enzyme (Homo sapiens, UniProt Q9UBT2); experiment: SUMOylation inhibitor hit validation, confirmation, SUMOylation inhibitor project, biochemical, AlphaScreen (AID 2018); format: functional
T5 sequence (Q9UBE0 whole entry, the tested form may be a part): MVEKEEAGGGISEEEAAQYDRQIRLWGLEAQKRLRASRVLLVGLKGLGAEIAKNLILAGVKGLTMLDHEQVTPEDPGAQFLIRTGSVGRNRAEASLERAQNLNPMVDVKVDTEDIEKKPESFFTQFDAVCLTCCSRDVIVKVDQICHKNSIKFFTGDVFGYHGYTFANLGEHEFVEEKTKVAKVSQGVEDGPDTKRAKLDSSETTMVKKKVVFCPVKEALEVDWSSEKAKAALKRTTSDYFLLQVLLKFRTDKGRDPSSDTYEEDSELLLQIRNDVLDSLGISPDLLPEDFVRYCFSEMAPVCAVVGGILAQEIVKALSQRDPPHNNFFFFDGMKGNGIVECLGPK
T5 sequence (Q9UBT2 whole entry, the tested form may be a part): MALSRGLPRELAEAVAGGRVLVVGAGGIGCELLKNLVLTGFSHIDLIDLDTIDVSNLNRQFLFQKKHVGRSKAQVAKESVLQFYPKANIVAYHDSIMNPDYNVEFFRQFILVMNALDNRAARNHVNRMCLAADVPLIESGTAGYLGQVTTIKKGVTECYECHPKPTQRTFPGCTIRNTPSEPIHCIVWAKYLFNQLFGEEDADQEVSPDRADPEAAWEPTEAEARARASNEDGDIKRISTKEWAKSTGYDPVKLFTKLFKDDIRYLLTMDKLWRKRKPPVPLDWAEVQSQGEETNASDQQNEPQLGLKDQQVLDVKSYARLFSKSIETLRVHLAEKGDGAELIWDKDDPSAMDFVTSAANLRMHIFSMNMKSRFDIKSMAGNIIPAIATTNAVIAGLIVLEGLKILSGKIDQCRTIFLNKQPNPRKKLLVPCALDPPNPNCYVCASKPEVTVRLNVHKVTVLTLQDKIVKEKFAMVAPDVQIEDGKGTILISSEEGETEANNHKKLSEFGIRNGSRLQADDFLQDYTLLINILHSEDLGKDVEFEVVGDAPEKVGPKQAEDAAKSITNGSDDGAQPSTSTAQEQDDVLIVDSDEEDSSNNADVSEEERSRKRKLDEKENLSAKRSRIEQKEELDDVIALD

[12] = molecular target: T6, Tyrosine-protein phosphatase non-receptor type 22 (Homo sapiens, UniProt Q9Y2R2); experiment: LYP phosphatase inhibition for selectivity, dose response, selectivity assay for LMPTP inhibitor project, biochemical, fluorescence, LYP catalytic domain (AID 652006); format: functional; details: read-out: IC50_Mean
T6 sequence (Q9Y2R2 whole entry): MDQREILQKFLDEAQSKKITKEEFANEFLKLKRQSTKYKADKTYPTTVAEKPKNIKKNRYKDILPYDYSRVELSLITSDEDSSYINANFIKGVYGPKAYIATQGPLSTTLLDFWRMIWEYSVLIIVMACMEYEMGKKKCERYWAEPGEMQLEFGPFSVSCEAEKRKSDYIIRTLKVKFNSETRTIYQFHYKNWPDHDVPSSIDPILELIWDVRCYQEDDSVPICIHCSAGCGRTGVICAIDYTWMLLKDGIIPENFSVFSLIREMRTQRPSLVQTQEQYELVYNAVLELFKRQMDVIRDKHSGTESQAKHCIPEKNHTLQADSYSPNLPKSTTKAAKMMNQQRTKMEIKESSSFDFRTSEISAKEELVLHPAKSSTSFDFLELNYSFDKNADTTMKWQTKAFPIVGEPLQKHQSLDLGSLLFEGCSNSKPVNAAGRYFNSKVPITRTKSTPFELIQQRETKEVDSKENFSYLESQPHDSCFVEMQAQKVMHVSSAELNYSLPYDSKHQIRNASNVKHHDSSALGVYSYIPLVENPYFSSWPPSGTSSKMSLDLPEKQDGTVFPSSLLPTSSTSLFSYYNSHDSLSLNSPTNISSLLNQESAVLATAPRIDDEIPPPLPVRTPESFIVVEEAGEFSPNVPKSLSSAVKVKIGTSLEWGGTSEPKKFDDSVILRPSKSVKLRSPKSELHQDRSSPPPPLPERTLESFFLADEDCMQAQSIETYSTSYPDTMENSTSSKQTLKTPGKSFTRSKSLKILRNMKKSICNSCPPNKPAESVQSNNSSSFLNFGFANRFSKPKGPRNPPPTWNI

[13] = molecular target: T7, Carboxy-terminal domain RNA polymerase II polypeptide A small phosphatase 1 (Homo sapiens, UniProt Q9GZU7); experiment: inhibitors of CTDSP1, concentration-response testing, biochemical assay, absorbance-based, actives from ultra-high-throughput screening (AID 540297); format: functional
T7 sequence (Q9GZU7 whole entry): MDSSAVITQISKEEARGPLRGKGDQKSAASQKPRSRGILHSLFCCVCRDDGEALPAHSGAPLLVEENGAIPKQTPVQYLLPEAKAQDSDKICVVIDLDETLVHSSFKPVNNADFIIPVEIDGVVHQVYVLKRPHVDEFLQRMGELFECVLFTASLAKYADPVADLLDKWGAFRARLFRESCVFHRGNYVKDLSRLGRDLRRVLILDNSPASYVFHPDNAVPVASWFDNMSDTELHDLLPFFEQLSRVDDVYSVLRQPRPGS

[14] = molecular target: T8, Low molecular weight phosphotyrosine protein phosphatase (Homo sapiens, UniProt P24666); format: functional; details: read-out: IC50_Mean
T8 sequence (P24666 whole entry): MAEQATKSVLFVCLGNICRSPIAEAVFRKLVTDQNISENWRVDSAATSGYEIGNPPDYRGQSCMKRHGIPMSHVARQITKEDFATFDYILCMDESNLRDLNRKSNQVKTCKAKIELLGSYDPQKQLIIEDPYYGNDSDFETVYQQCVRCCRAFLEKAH

[15] = molecular target: Peroxisome proliferator-activated receptor gamma/Nuclear receptor coactivator 3 (Homo sapiens, UniProt P37231); format: functional;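 note: agonist potency for raising coactivator recruitment to the receptor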
SUMO-activating enzyme [16] = molecular target: T5, SUMO-activating enzyme; experiment: inhibitors of in vitro SUMOylation cascade, primary screen, biochemical, HTRF, uHTS (AID 2006); format: protein-complex assay
[17] = molecular target: Peroxisome proliferator-activated receptor gamma/Nuclear receptor coactivator 2 (Homo sapiens, UniProt P37231); format: functional;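 note: agonist potency for raising coactivator recruitment to the receptor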
[18] = molecular target: T8, Low molecular weight phosphotyrosine protein phosphatase; format: functional; details: read-out: IC50_Mean; remark: listed apart in the source
[19] = growth suppression of beta-catenin-knockout colon cells, dose response, cell-based, HCT116, human colon tumor (AID 1045); format: functional;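 note: HCT116 colon tumor cells with beta catenin knocked out; cells exposed to compound for 60 hours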
[20] = molecular target: Peroxisome proliferator-activated receptor gamma/Nuclear receptor coactivator 1 (Homo sapiens, UniProt P37231); format: functional;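 note: agonist potency as compounds enhance coactivator SRC-1 recruitment to PPARgamma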
Peroxisome proliferator-activated receptor gamma/Nuclear receptor coactivator 1, sequence (P37231 whole entry): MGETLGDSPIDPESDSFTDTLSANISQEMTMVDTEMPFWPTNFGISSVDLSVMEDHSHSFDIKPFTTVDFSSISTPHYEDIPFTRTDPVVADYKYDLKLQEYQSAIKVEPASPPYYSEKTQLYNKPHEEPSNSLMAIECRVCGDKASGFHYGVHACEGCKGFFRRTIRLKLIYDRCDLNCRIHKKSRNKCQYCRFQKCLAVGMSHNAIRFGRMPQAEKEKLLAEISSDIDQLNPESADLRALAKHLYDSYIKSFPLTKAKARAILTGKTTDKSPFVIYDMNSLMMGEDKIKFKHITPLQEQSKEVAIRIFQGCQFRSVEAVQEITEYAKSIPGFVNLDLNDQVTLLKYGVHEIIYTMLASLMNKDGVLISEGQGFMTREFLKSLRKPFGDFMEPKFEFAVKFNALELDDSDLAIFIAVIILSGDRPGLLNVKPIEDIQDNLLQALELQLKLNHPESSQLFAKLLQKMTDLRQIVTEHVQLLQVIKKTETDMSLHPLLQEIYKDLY
Peroxisome proliferator-activated receptor gamma/Nuclear receptor coactivator 1, sequence (Q15788 whole entry, further chain): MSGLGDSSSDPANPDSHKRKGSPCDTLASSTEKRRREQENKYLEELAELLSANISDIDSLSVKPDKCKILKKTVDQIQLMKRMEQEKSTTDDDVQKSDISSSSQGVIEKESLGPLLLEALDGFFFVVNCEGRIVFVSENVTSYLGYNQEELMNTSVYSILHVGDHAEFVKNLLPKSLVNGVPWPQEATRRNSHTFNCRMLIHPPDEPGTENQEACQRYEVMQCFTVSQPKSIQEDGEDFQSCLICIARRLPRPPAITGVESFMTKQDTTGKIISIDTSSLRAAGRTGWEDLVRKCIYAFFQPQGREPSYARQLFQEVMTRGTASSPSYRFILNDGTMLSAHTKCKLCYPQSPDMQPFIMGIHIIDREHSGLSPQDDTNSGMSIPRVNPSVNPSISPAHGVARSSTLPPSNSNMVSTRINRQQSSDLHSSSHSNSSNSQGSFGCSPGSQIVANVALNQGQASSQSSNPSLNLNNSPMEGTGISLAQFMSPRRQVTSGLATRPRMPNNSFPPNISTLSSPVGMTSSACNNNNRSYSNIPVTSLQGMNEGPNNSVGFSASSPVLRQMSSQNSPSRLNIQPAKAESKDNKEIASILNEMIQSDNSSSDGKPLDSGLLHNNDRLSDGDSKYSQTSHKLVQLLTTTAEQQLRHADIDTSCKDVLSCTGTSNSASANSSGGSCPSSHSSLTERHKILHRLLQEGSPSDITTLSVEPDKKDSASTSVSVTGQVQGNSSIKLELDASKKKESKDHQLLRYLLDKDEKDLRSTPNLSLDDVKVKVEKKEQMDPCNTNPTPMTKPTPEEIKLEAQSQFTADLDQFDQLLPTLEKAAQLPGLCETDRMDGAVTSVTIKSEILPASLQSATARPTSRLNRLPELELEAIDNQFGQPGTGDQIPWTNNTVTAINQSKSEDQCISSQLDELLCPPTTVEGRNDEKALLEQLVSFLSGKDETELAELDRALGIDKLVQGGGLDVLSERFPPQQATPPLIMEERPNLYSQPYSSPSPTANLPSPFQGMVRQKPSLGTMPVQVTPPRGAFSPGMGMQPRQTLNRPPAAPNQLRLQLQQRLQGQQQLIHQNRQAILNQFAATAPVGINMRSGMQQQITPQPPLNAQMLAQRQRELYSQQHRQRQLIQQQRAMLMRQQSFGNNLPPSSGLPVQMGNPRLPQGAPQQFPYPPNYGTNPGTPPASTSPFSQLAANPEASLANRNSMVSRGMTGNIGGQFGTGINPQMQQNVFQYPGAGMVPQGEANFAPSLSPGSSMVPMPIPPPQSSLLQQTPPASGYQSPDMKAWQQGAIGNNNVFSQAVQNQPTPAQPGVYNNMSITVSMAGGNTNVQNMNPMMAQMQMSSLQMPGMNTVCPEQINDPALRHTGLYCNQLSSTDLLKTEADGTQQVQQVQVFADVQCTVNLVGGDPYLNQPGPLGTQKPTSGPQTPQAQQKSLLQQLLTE

[21] = growth suppression of PTEN-null colon cells, dose response, cell-based, HCT116 PTEN knockout (AID 1047); format: functional;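 note: HCT116 colon tumor cells with PTEN knocked out; cells exposed to compound for 60 hours before readout; potency for loss of cell viability measured by luminescence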

## Cc1ccc(C(C)(C)C)cc1S(=O)(=O)Nc1nc2ccccc2nc1Cl
[1]
  IC50: 6.04 µM (active)
[2]
  EC50: 6.68 µM (active)
[3]
  IC50: 12.9 µM (active)
[4]
  EC50: 31.4 µM (active)

## CCCCOc1ccc(CONS(=O)(=O)c2ccc(NC(C)=O)cc2)cc1Cl
[5]
  IC50: 4.47 µM (active)

## C(#Cc1ccccc1)C[N+]1(CC#Cc2cccc3ccccc23)CCCC1
[6]
  EC50: > 38 µM (not active)
INS1
  AC50: 6.44 µM (active)
[7]
  AC50: 15.2 µM (active)
[8]
  EC50: > 150 µM (inconclusive)
[9]
  AC50: 6.21 µM (active)
Protein Wnt-3a
  IC50: 5.07 µM (active)

## CCCCCCCCn1c(=O)c(C(=O)OC)c(N)c2ccccc21
INS1
  AC50: 5.55 µM (active)
[5]
  IC50: 6.4 µM (active)

## Cc1nnsc1C(=O)NC1CCCc2c1cnn2-c1ccc(F)cc1F (centres undefined)
Protein Wnt-3a
  IC50: 3.91 µM (active)

## Cc1cccc(NC(=O)CSc2nc(O)c3c[nH]nc3n2)c1C
[10]
  IC50: 35.9 µM (inactive)

## CCOc1ccc(/N=c2\scc(-c3ccc(OC)cc3)n2CCO)cc1
[1]
  IC50: 3.31 µM (active)
[3]
  IC50: > 20 µM (inactive)
[4]
  EC50: > 53 µM (inactive)

## CCOC(=O)Cn1/c(=N/C(=O)c2sc3ccccc3c2Cl)sc2cc(S(N)(=O)=O)ccc21
SUMO-activating enzyme [11]
  IC50: 11.8 µM (active)
[12]
  IC50: 52.2 µM (inactive)
[13]
  IC50: 2.06 µM (active)
[14]
  IC50: 27.7 µM (inactive)
[15]
  EC50: 14.3 µM (not active)
SUMO-activating enzyme [16]
  IC50: 4.97 µM (active)
[17]
  EC50: 7.96 µM (active)
[18]
  IC50: 16.4 µM (active)
[19]
  EC50: 46.4 µM (active)
[20]
  EC50: 11.3 µM (not active)
[21]
  EC50: 72.5 µM (active)
